Experimental data taken from patent US8668925B2, “Transdermal delivery of hormones without the need of penetration enhancers” (Bayer Intellectual Property GmbH, priority 2003, dated 2014).

What was measured:
[1] = cited from earlier work
[2] = Serum pharmacokinetics of Ethinylestradiol and Gestodene during two patch treatment cycles; parameters: species or system women; conditions: female, human, in vivo, topical or ocular, 0.9 mg, AUC(0-[…]) of ethinyl estradiol (EE), mean
Description: Arcare MA-24A® is a polyisobutylene based adhesive from Adhesive Research.
The treatment phase includes a period of two menstrual cycles. The first treatment in the first cycle began one day after the volunteers started menstruating in this cycle by application of a patch. A total of three test patches were applied in intervals of 7 days between, such as application at days 1, 8 and 15 of the first cycle—each at different application sites—during each treatment cycle. Each patch was worn for 7 days, then replaced with a new patch to complete a total of 21 days of continuous use. This was followed by a 7-day treatment-free interval before the next treatment period started with a total of three patches applied, each applied with an interval of 7 days. If the patches were lost or became more than 40% detached, a new patch was applied.
The AUC was calculated according to the linear trapezoidal rule.
The sampling points were at the day 18 of the last pre-treatment cycle and days 1, 2, 3, 4, 5, 6, 7, 8, 15, 16, 17, 18, 19, 20, 21 and 22 of cycle 1 as well as days 1 (before application of new patch), 2, 3, 4, 5, 6, 7, 8, 15, 16, 17, 18, 19, 20, 21 and 22 of cycle 2.
After incubation and centrifugation, the resultant precipitate was redissolved with NaOH. The assay has a lower limit of quantification of approx. 250 μg/ml.

| SMILES | Maximal plasma levels ([1]; U.S. Pat. No. 5,376,377, ethylene vinyl acrylate adhesive layer, Gestodene and ethinylestradiol) | maximal plasma levels of Gestodene ([1]; WO 92/07590, transdermal compositions with penetration enhancers) | AUC(0-t) ([2]; Cycle 1, Week 1, test patch) | AUC(0-t) ([2]; Cycle 1, Week 3, test patch) | AUC(0-t) ([2]; Cycle 2, Week 1, test patch) | AUC(0-t) ([2]; Cycle 2, Week 3, test patch) |
| --- | --- | --- | --- | --- | --- | --- |
| C#C[C@]1(O)C=C[C@H]2[C@@H]3CCC4=CC(=O)CC[C@@H]4[C@H]3CC[C@@]21CC [Gestodene, 13β-Ethyl-17α-ethynyl-17β-hydroxy-4,15-gonadien-3-one] | about 0.8 ng/ml | about 0.9 ng/ml |  |  |  |  |
| C#C[C@]1(O)CC[C@H]2[C@@H]3CCc4cc(O)ccc4[C@H]3CC[C@@]21C [ethinyl estradiol, Ethinylestradiol] |  |  | 5.3 ng·h/mL | 6.1 ng·h/mL | 5.1 ng·h/mL | 5.8 ng·h/mL |
